From BigSolDB 2.1

COc1cc(CO)ccc1O
solubility (mole fraction) (in acetonitrile, 293.15 K): 0.0172 | solubility (mole fraction) (in acetonitrile, 303.15 K): 0.0262 | solubility (mole fraction) (in acetonitrile, 313.15 K): 0.0415 | solubility (mole fraction) (in acetonitrile, 323.15 K): 0.0713 | solubility (mole fraction) (in acetonitrile, 333.15 K): 0.127 | solubility (mole fraction) (in acetonitrile, 343.15 K): 0.22 | solubility (mole fraction) (in ethanol, 293.15 K): 0.0442 | solubility (mole fraction) (in ethanol, 303.15 K): 0.0627 | solubility (mole fraction) (in ethanol, 313.15 K): 0.0936 | solubility (mole fraction) (in ethanol, 323.15 K): 0.142 | solubility (mole fraction) (in ethanol, 333.15 K): 0.205 | solubility (mole fraction) (in ethanol, 343.15 K): 0.317 | solubility (mole fraction) (in ethyl acetate, 293.15 K): 0.0176 | solubility (mole fraction) (in ethyl acetate, 303.15 K): 0.0296 | solubility (mole fraction) (in ethyl acetate, 313.15 K): 0.0393 | solubility (mole fraction) (in ethyl acetate, 323.15 K): 0.0682 | solubility (mole fraction) (in ethyl acetate, 333.15 K): 0.1 | solubility (mole fraction) (in ethyl acetate, 343.15 K): 0.163 | solubility (mole fraction) (in isopentanol, 293.15 K): 0.0225 | solubility (mole fraction) (in isopentanol, 303.15 K): 0.0302 | solubility (mole fraction) (in isopentanol, 313.15 K): 0.0447 | solubility (mole fraction) (in isopentanol, 323.15 K): 0.0652 | solubility (mole fraction) (in isopentanol, 333.15 K): 0.0912 | solubility (mole fraction) (in isopentanol, 343.15 K): 0.14 | solubility (mole fraction) (in isopropanol, 293.15 K): 0.0284 | solubility (mole fraction) (in isopropanol, 303.15 K): 0.0418 | solubility (mole fraction) (in isopropanol, 313.15 K): 0.0578 | solubility (mole fraction) (in isopropanol, 323.15 K): 0.0957 | solubility (mole fraction) (in isopropanol, 333.15 K): 0.149 | solubility (mole fraction) (in isopropanol, 343.15 K): 0.237 | solubility (mole fraction) (in n-butanol, 293.15 K): 0.0234 | solubility (mole fraction) (in n-butanol, 303.15 K): 0.0393 | solubility (mole fraction) (in n-butanol, 313.15 K): 0.0538 | solubility (mole fraction) (in n-butanol, 323.15 K): 0.0902 | solubility (mole fraction) (in n-butanol, 333.15 K): 0.134 | solubility (mole fraction) (in n-butanol, 343.15 K): 0.182 | solubility (mole fraction) (in n-butyl acetate, 293.15 K): 0.0098 | solubility (mole fraction) (in n-butyl acetate, 303.15 K): 0.0177 | solubility (mole fraction) (in n-butyl acetate, 313.15 K): 0.027 | solubility (mole fraction) (in n-butyl acetate, 323.15 K): 0.0428 | solubility (mole fraction) (in n-butyl acetate, 333.15 K): 0.0653 | solubility (mole fraction) (in n-butyl acetate, 343.15 K): 0.107 | solubility (mole fraction) (in n-pentanol, 293.15 K): 0.0214 | solubility (mole fraction) (in n-pentanol, 303.15 K): 0.0338 | solubility (mole fraction) (in n-pentanol, 313.15 K): 0.049 | solubility (mole fraction) (in n-pentanol, 323.15 K): 0.0728 | solubility (mole fraction) (in n-pentanol, 333.15 K): 0.102 | solubility (mole fraction) (in n-pentanol, 343.15 K): 0.155
